From US11524938B2, “Aromatic sulfonamide derivatives” (Bayer Pharma Aktiengesellschaft, priority 2016, dated 2022)

Columns and labels:
[1] = biological target: T1, human P2X4 (Homo sapiens, UniProt Q99571); test: FLIPR assay, human P2X4 1321N1 Astrocytoma cells; format: cell-based; settings: agonist Mg-ATP 0.5 μM (EC80)
T1 sequence (Q99571 1-388): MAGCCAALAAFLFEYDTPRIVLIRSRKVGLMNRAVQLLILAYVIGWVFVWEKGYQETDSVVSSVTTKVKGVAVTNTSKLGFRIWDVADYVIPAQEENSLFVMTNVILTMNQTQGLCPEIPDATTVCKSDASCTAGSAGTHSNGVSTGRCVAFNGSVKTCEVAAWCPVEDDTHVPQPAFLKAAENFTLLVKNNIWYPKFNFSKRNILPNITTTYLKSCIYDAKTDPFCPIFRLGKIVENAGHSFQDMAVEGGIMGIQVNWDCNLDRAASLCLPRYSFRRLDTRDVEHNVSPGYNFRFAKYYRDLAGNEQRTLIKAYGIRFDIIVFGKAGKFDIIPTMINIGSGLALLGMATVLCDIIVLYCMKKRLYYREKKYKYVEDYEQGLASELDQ
Method: 1321N1 Astrocytoma cells stably expressing human P2X4 or rat P2X4 or mouse P2X4 were plated in Collagen I TC-treated microplate at a seeding density of 10000 cells/well and incubated overnight. P2X4 function was assessed by measuring intracellular calcium changes using the calcium-chelating dye Fluo8-AM (Molecular Devices) on a fluorescent imaging plate reader (FLEX/FLIPR station; Molecular Devices). On the day of the assay, the medium was removed and the cells were incubated for 30 min at 37 °C and 5% CO2 in 30 μL of dye buffer (Hank's balanced salt solution, 10 mM HEPES, 1.8 mM CaCl2, 1 mM MgCl2, 2 mM probenecid, 5 mM D-glucose monohydrate, 5 μM Fluo8-AM, pH=7.4). Compounds diluted in probenecid buffer (Hank's balanced salt solution, 10 mM HEPES, 1.8 mM CaCl2, 1 mM MgCl2, 2 mM probenecid, 5 mM D-glucose monohydrate, pH=7.4) were added in a volume of 10 μL and allowed to incubate for 30 min at room temperature. The final assay DMSO concentration was 0.25%. The agonist, Mg-ATP (Sigma), was added in a volume of 10 μL at a concentration representing the EC80 value. EC80 was determined to be 0.5 μM for human and mouse P2X4 and 5 μM for rat P2X4. The fluorescence was measured for an interval of 120 sec at 2 sec intervals. The excitation and emission wavelengths used to monitor fluorescence were 470-495 nm and 515-575 nm, respectively. The data was analyzed based on the increase in peak relative fluorescence units (RFU) compared to the basal fluorescence and the data was normalized to the agonist control. The compounds were tested in triplicates per plate and mean values were plotted in Excel XLFit to determine IC50 values, percentage of maximal inhibition and the Hill coefficients.

[2] = biological target: T1, human P2X4; test: Human P2X4 HEK Cell FLIPR Assay; format: cell-based; settings: HEK293, HEK293 cells, agonist Bz-ATP at EC80; percentage of maximal inhibition; read-out: Human P2X4 HEK Cells (FLIPR Assay) avg Efficacy [%]
Summary of the method: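 Calcium flux read by FLIPR for 120 sec after Bz-ATP challenge at EC80 (established each assay day), following 30 min room-temperature compound preincubation in dye-loaded stable human P2X4 HEK293 cells. Peak RFU over basal normalized to agonist control; IC50, maximal inhibition and Hill coefficient from triplicate means.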

Human P2X4 1321N1 Astrocytoma Cells (FLIPR Assay) avg Efficacy [%] [1] [%] | Emax [2] [%] | Compound
83 | 96 | N#Cc1cnn(-c2ccc(NC(=O)Cc3ccccc3Cl)cc2S(N)(=O)=O)c1 [Example 39, 2-(2-Chlorophenyl)-N-[4-(4-cyano-1H-pyrazol-1-yl)-3-sulfamoylphenyl]acetamide]
80 | 95 | NS(=O)(=O)c1cc(NC(=O)Cc2ccccc2Cl)ccc1-c1cnn(C(F)F)c1 [Example 326, 2-(2-Chlorophenyl)-N-{4-[1-(difluoromethyl)-1H-pyrazol-4-yl]-3-sulfamoylphenyl}acetamide]
